Experimental data: patent publication US8178524B2, “Noribogaine in the treatment of pain and drug addiction” (Demerx, Inc., priority 1997, dated 2012)

Target: T1, μ-opioid receptor (Rattus norvegicus, UniProt P33535)
T1 construct: from tissue; host or cells: rat (Sprague Dawley) thalamic membranes
Assay: Stimulation of [35S]GTPγS binding to rat thalamic membranes (receptor activation of G proteins)
Assay type: biochemical, Rat (Sprague Dawley)

T1 sequence (P33535 whole entry): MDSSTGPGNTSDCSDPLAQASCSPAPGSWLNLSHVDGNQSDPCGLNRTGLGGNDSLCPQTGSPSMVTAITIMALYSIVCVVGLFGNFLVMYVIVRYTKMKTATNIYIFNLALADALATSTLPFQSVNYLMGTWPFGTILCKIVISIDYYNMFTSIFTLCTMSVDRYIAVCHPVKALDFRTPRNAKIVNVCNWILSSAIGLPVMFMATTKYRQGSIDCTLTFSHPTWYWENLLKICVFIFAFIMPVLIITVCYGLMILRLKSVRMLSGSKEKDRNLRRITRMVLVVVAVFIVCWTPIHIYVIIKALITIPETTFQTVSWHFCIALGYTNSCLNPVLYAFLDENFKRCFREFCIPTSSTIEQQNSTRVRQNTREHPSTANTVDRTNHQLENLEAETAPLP

Compound | stimulation of [35S]GTPγS binding (even at concentrations above 100 μM) | agonist efficacy at the μ-opioid receptor (conclusion from [35S]GTPγS binding results) | level of [35S]GTPγS binding stimulated vs maximal number of binding sites occupied after DAMGO stimulation (relative to DAMGO stimulation of G proteins)
CC[C@H]1C[C@H]2C[C@H]3c4[nH]c5ccc(OC)cc5c4CCN(C2)C13 [Ibogaine] | weak stimulation |  | 
CC[C@H]1C[C@H]2C[C@H]3c4[nH]c5ccc(O)cc5c4CCN(C2)C13 [Noribogaine, 12-hydroxyibogamine] |  | full agonist | in close agreement
